# According to article PMC10904736, “A c-di-GMP signaling module controls responses to iron in Pseudomonas aeruginosa” (Nature Communications, 2024):
# Target: T1, ImcA (PA1851) (Pseudomonas aeruginosa, UniProt Q9I2P4)
# T1 construct: full-length membrane protein (6TM L47-E231, GGDEF R241-A393), expressed in E. coli BL21(DE3), DDM-solubilised, Strep-Tactin purified, homodimer
# Assay: HPLC of c-di-GMP formation
# Assay type: biochemical
# Details: 200 µM GTP; 50 mM Tris-HCl pH 8.0, 150 mM NaCl, 0.025% DDM; 37 °C, 2 h; without IsmP
# T1 sequence (Q9I2P4 entry or part of it): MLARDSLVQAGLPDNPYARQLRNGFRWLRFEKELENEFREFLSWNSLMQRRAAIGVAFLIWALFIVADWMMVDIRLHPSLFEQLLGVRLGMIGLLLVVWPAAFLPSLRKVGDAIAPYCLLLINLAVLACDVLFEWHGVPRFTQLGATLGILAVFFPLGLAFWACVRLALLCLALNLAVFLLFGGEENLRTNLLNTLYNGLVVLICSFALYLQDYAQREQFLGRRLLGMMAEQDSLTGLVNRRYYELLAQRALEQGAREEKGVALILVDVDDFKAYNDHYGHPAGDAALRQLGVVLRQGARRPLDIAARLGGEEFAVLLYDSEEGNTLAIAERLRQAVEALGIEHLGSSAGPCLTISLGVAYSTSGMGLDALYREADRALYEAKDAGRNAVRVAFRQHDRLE
smiles,measurement,value
Nc1nc2c(ncn2[C@@H]2O[C@H](COP(=O)(O)OP(=O)(O)OP(=O)(O)O)[C@@H](O)[C@H]2O)c(=O)[nH]1 [GTP],HPLC of c-di-GMP formation,GTP was absolutely converted to c-di-GMP when GTP was incubated with ImcA alone
